Tests used:
seasonal allergies = assay: Working examples: individuals having or at risk for seasonal allergies given HMB; format: in vivo, human
Experimental: An individual who suffers from seasonal allergies in the spring is given 0.25-1 g of HMB (Nutritional Liquid #5) four times a week for a year. The symptoms of seasonal allergies are reduced the following spring.
The individual is administered 0.1-1.5 g of HMB (Nutritional Liquid #3) once a day for 6 months.

kidney tumors = assay: Working example: individual treated for kidney tumors given HMB; format: in vivo, human; settings: person; 750 mg HMB (capsules) four times a week for a year
Experimental: A person diagnosed with and has been treated for kidney tumors is administered 750 mg of HMB (capsules) four times a week for a year.

[1] = tested on: peripheral blood mononuclear cells (PBMC) stimulated with CD3/CD28; assay: Cytokine production by PBMCs stimulated with CD3/CD28 for 24 hours, Bio-plex Cytokine Assay; format: cell-based, human
Experimental: To induce production of cytokines, PBMCs, isolated from peripheral blood of 10 normal healthy donors, are stimulated for 24 hours with the T cell stimulant CD3/CD28. Cytokine production is analyzed using a Bio-plex Cytokine Assay. The Bio-Plex technology is based on antibody-antigen interactions, wherein fluorescently labeled beads conjugated with antibody directed against the cytokine of interest bind target cytokine to the bead. This bead-cytokine complex is then exposed to a biotinylated detection antibody and a streptavidin-PE (phycoerythrin) reporter molecule. The signal from the reporter molecule is directly proportional to the amount of cytokine present, thus enabling cytokine quantification.
Each of the T cell-derived cytokines quantified in the experiment is described in the following table:
A t-test (paired sample, two-tailed) is performed in which a broad range of type 1 and type 2 cytokines are evaluated from cultures with HMB compared to cultures and without HMB.

asthma = assay: Working examples: individuals having or at risk for asthma given HMB; format: in vivo, human
Experimental: A person who normally has four exacerbations of asthma per year is administered 1-10 g of HMB (Nutritional Liquid #5) four times a week for a year.
A person suffering from moderate persistent asthma is tested to determine the individual's FEV1 percentage value and the value is recorded.
A person suffering from mild intermittent asthma is tested to determine the individual's FEV1 percentage value and a value of 83% is recorded. The individual is then administered 1.5-6 g of HMB 4 times (Nutritional Liquid #5) a week for a year. One year later the individual's FEV1 remains above 80% and symptoms of asthma are reduced.
The individual is administered 250 mg of HMB (Nutritional Liquid #4) once a day for 6 months.

ovarian cancer = assay: Working example: individual after chemotherapy for ovarian cancer given HMB; format: in vivo, human; settings: person after chemotherapy; 2-10 g HMB (Nutritional Liquid #1) four times a week for a year
Experimental: A person who has undergone chemotherapy for ovarian cancer is administered 2-10 g of HMB (Nutritional Liquid #1) four times a week for a year.

stress = assay: Working examples: individuals with psychological, surgical or pre-surgical stress given HMB; format: in vivo, human; settings: person
Experimental: A person suffering from severe symptoms of psychological stress as a result of a burn injury is administered 500 mg (Nutritional Liquid #1) of HMB 4 times a week for a year. One year later the symptoms of psychological stress are reduced.
A person suffering from symptoms of surgical stress is administered 200 mg of HMB (Nutritional Liquid #2) 7 times a week for 2 months. Two months later the symptoms of surgical stress are reduced.
A person suffering from symptoms of pre-surgical stress is administered 200 mg of HMB (capsules) once a day for 3 weeks preceding the individual's scheduled surgery. At the end of the 3 weeks, symptoms of pre-surgical stress are reduced.

[2] = tested on: respiratory tract infections; assay: Working examples: respiratory infections in individuals given HMB; format: in vivo, human; settings: person recovered from pneumonia; 250 mg HMB (Nutritional Liquid #1) once a day for 6 months
Experimental: A person, after conventional treatment for and recovery from pneumonia, is administered 250 mg of HMB (Nutritional Liquid #1) once a day for 6 months.
A person is training for the New York Marathon. During their training period and for 3 months following the event they take two servings per day of Nutritional formula #6 (containing 1 gram HMB per serving).

melanoma = assay: Working example: individual treated for melanoma given HMB; format: in vivo, human; settings: person; 1 g HMB (Nutritional Liquid #1) 4 times a week for a year
[3] = 1 mM, 5 mM and 10 mM HMB, FIG. 3
[4] = 5 mM and 10 mM HMB, PBMC, CD3/CD28, 24 hours, vs no HMB, FIG. 1
[5] = PBMC, CD3/CD28, 24 hours, vs no HMB, FIG. 1
[6] = PBMC, CD3/CD28, 24 hours, vs no HMB, FIG. 2
[7] = person, moderate persistent asthma, 5-10 g HMB (Nutritional Liquid #5) 4 times a week for a year

Compound: CC(C)(O)CC(=O)O [HMB, β-hydroxy-β-methylbutyrate]
- symptoms of seasonal allergies the following spring (seasonal allergies; individual, 0.25-1 g HMB (Nutritional Liquid #5) four times a week for a year): reduced
- signs of seasonal allergies six months later (seasonal allergies; person with family history, no signs at start, 0.1-1.5 g HMB (Nutritional Liquid #3) once a day for 6 months): still shows no signs
- spread of kidney tumor six months later (kidney tumors): has not spread
- IL-2 production relative to IL-5 production [1, 3]: increased
- IL-2 production relative to IL-13 production [1, 3]: increased
- IL-2 production relative to IL-4 production ([1]; 5 mM and 10 mM HMB, FIG. 3): Increases
- IL-2 production relative to IL-10 production ([1]; 5 mM and 10 mM HMB, FIG. 3): Increases
- IL-12 production relative to IL-4 ([1]; 5 mM and 10 mM HMB, FIG. 4): Increases
- IL-12 production relative to IL-5 ([1]; 5 mM and 10 mM HMB, FIG. 4): Increases
- IL-12 production relative to IL-10 ([1]; 5 mM and 10 mM HMB, FIG. 4): Increases
- IL-12 production relative to IL-13 ([1]; 5 mM and 10 mM HMB, FIG. 4): Increases
- IFNγ production relative to IL-5 ([1]; 5 mM and 10 mM HMB, FIG. 5): increases
- IL-2 production (type 1 cytokine) ([1]; 5 mM and 10 mM HMB, PBMC of 10 healthy donors, CD3/CD28, 24 hours, vs no HMB, FIG. 1): Significant dose response increases
- IFNγ production (type 1 cytokine) [1, 4]: Significant dose response increases
- IL-12 production (type 1 cytokine) [1, 4]: Significant dose response increases
- IFNγ production relative to IL-4 ([1]; 10 mM HMB, FIG. 5): Increases
- IFNγ production relative to IL-10 ([1]; 10 mM HMB, FIG. 5): Increases
- IL-10 production (type 2 cytokine) ([1]; 10 mM HMB, PBMC, CD3/CD28, 24 hours, vs no HMB, FIG. 2): significant decrease
- GC-CSF production [1, 5]: does not significantly affect
- TNFα production [1, 5]: does not significantly affect
- IL-4 production (type 2 cytokine) [1, 6]: does not significantly affect
- IL-5 production (type 2 cytokine) [1, 6]: does not significantly affect
- IL-13 production (type 2 cytokine) [1, 6]: does not significantly affect
- signs of symptoms of asthma six months later (asthma; person with family history, no signs at start, 250 mg HMB (Nutritional Liquid #4) once a day for 6 months): still shows no signs
- FEV1 one year later (asthma; person, mild intermittent asthma, baseline FEV1 83%, 1.5-6 g HMB (Nutritional Liquid #5) 4 times a week for a year): above 80%
- symptoms of asthma one year later (asthma; person, mild intermittent asthma, 1.5-6 g HMB (Nutritional Liquid #5) 4 times a week for a year): reduced
- FEV1 one year later (asthma; [7]): has not decreased
- symptoms of asthma one year later (asthma; [7]): reduced
- asthma exacerbation frequency (asthma; person, normally four exacerbations per year, 1-10 g HMB (Nutritional Liquid #5) four times a week for a year): decreases to once a year
- return of ovarian cancer one year later (ovarian cancer): has not returned
- symptoms of surgical stress, two months later (stress; 200 mg HMB (Nutritional Liquid #2) 7 times a week for 2 months): reduced
- symptoms of pre-surgical stress at the end of 3 weeks (stress; 200 mg HMB (capsules) once a day for 3 weeks before surgery): reduced
- symptoms of psychological stress after burn injury, one year later (stress; 500 mg HMB (Nutritional Liquid #1) 4 times a week for a year): reduced
- respiratory tract infections, including recurrence of pneumonia, during six months [2]: remains free of respiratory tract infections
- spread of melanoma six months later (melanoma): has not spread
